Test results published in patent US12448425B2, “Therapeutic peptides” (Board of Regents, The University of Texas System, priority 2019, dated 2025).

How the values were obtained:
EphB4 and Crk1 = assay: Phosphorylation of EphB4 and Crk1 in A2780cp20 cells (IP/immunoblot); format: cell-based, human
Description: FIGS. 2A-C: BIDEN-AP acts as an EphB4 agonist. (FIG. 2A) BIDEN-AP induced phosphorylation of EphB4 and the associated […] (Crk1). After 16 h serum starvation, A2780cp20 cells were incubated with EFNB2-Fc (20 nM), TNYL-RAW (SEQ ID NO: 12) (50 μM), or BIDEN-AP (50 μM) for 30 min or 2 h. The uncropped blots were available at Supplemental FIG. 11. (FIG. 2B) BIDEN-AP inhibited A2780cp20 cell invasion compared to untreated control (CTL). A modified Boyden transwell chamber coated with human defined matrigel was used. Experiments were performed in triplicate. Data are presented as mean±SD. ***p<0.001. (FIG. 2C) Alexa647-BIDEN-AP was internalized via receptor-mediated endocytosis. A2780cp20 cells were incubated at 37° C. with Alexa647-BIDEN-AP (0.05 μM), Alexa647-TNYL-RAW (SEQ ID NO: 12) (0.05 μM), or Alexa647-BIDEN-AP (0.05 μM) plus unlabeled TNYL-RAW (SEQ ID NO: 12) (5 μM, blocking). Alexa647-BIDEN-AP but not Alexa647-TNYL-RAW (SEQ ID NO: 12) was internalized into the A2780cp20 cells.
Total protein lysates were harvested and subjected to Nupage-SDS separation followed by immunoblotting. […] CTL, untreated control. The uncropped blots were available at Supplemental FIG. 11.
Immunoblotting, immunoprecipitation, and co-immunoprecipitation. […] The protein concentrations were determined by using a BCA Protein Assay Reagent kit (Pierce Biotechnology, Rockford, IL). […]

A2780cp20-Luc tumors = assay: Orthotopic A2780cp20-Luc ovarian cancer model; format: in vivo, mouse
Description: Female nude mice were intraperitoneally (i.p.) inoculated with […] tumor cells. […] Tumor growth was monitored by bioluminescence imaging (IVIS). […] CTL, untreated control.
Orthotopic ovarian cancer models. […] For all therapeutic experiments, groups of the mice (n=8-10) were inoculated intraperitoneally with A2780cp20-Luc cells. […] Untreated mice were used as a control.
Immunoblotting, immunoprecipitation, and co-immunoprecipitation. For immunoblotting, lysates from cultured cells were prepared using modified radioimmunoprecipitation assay (RIPA) buffer (50 mM Tris-HCl [pH 7.4], 150 mM NaCl, 1% Triton, 0.5% deoxycholate) plus 25 μg/mL leupeptin, 10 μg/mL aprotinin, 2 mM EDTA, and 1 mM sodium orthovanadate. To prepare lysates of snap-frozen tissue from mice, approximately 30-mm^3 cuts of tissue were disrupted with a tissue homogenizer and subjected to centrifugation at 13,000 rpm for 30 min in modified RIPA buffer. The protein concentrations were determined by using a BCA Protein Assay Reagent kit (Pierce Biotechnology, Rockford, IL). Lysates were loaded and separated by 8% sodium dodecyl sulfate (SDS)-polyacrylamide gel electrophoresis (PAGE). Proteins were transferred to a nitrocellulose membrane by semidry electrophoresis (Bio-Rad Laboratories, Hercules, CA) overnight, blocked with 3% BSA for 1 h, and then incubated at 4° C. with primary antibody overnight. After washing with a mixture of tris-buffered saline and Tween 20 (TBST) solutions, the membranes were incubated with horseradish peroxidase (HRP)-conjugated horse anti-mouse IgG (1:2000, GE Healthcare, Amersham Place, UK) for 2 h. HRP was visualized by an enhanced chemoluminescence detection kit (Pierce). […] Densitometry was performed using ImageJ software. For immunoprecipitation and co-immunoprecipitation, cells were subjected to lysis in non-denaturing NP40 cell lysis buffer (Cell Signaling Technology, Boston, MA). The extracts were incubated with A/G-conjugated antibody at 4° C. for 2 h, and for immunoprecipitation the beads were washed twice with RIPA buffer, once with 0.5 m LiCl in 0.1 m Tris (pH 8.0), and once with PBS. Reactions were boiled in sample buffer, and proteins were then subjected to 10% SDS-PAGE and immunoblotting.
Immunofluorescence analysis of CD31 was performed on 5-μm-thick fresh-frozen tissue samples. After deblocking with acetone, acetone-chloroform (1:1), and acetone for 5 min, non-specific binding was blocked with 4% fish gelatin (Biotium Inc, Hayward, CA) in PBS for 30 min.
Immunohistochemistry (IHC) analysis.

CCPM-BIDEN-AP: nano-conjugate of Cys-BIDEN-AP on core-crosslinked polymeric micelles via maleimide (GMBS) (CTNYLFSPNGPIARAW; D-residues)
phosphorylation of EphB4 and Crk1 in vitro (EphB4 and Crk1): induce EphB4 and Crk1 phosphorylation | bioluminescence signal intensity (A2780cp20-Luc tumors; day 28, 13 mg/kg/injection i.p., 10 doses): significantly reduced the bioluminescence signal intensity | metastatic nodules, comparison of the two agents (A2780cp20-Luc tumors; day 31): reduced metastatic nodules to a greater extent than BIDEN-AP | tumor growth in the peritoneum (tumor weight, number of metastatic nodules) (A2780cp20-Luc tumors; day 31, 13 mg/kg/injection i.p., 10 doses): significantly reduced tumor growth | apoptotic cell death in CD31 endothelial vasculature (TUNEL) (A2780cp20-Luc tumors; excised tumors): induced apoptotic cell death | tumor cell proliferation (Ki67-positive cells) (A2780cp20-Luc tumors; excised tumors): significantly reduced tumor cell proliferation | microvessel density (MVD) (A2780cp20-Luc tumors; excised tumors, CD31): decreased microvessel density | EphB4 and Crk1 phosphorylation in vivo (A2780cp20-Luc tumors; orthotopic A2780cp20 tumors): induce EphB4 and Crk1 phosphorylation
